Data on 31 compounds can be found in PubChem BioAssay AID602427 (Sanford-Burnham Center for Chemical Genomics, 2012).

The source made the active and inactive calls.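 How the source made its calls: active means EC50 at or below 20 micromolar; inactive means the rest.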 Some results are limits rather than exact numbers.

Chain of Neurotensin receptor type 1 (Homo sapiens) (P30989 whole entry, looked up, the tested form may be a part): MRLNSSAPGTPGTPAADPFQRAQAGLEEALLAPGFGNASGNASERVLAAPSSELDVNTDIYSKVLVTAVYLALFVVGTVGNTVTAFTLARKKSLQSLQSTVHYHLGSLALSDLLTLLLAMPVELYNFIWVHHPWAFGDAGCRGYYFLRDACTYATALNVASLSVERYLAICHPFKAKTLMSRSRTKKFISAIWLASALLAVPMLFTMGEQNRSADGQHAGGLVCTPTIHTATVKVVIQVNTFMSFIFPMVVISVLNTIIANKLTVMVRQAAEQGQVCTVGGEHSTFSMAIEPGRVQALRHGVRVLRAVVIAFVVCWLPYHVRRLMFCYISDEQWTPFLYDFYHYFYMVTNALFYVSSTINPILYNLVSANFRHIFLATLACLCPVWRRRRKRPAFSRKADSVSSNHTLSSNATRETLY

This assay has as its target Neurotensin receptor type 1 (Homo sapiens) (UniProt P30989). Briefly: NTSR1 activation via enzyme-fragment complementation – cell-based, luminescence, CHO-K1 NTSR1 PathHunter, orthogonal assay for NTR1 agonist project, SAR follow-up (AID 602427).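 Further: agonist potency for NTR1 activation where higher luminescence means more arrestin recruitment.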 The following applies: CHO-K1 NTSR1 PathHunter beta-arrestin.
What is called EC50 is the concentration giving half of the maximal effect. For `COc1cc2nc(C3CCC3)nc(N3CCN(c4ccccc4Cl)CC3)c2cc1OC`, the EC50 was > 33 µM (inactive).

For `COc1ccc2c(c1)c1nnc(-c3ccc(F)cc3)c-1cn2Cc1ccc(F)cc1`, the EC50 is > 33 µM (inactive). With `COc1cccc2c(C(=O)N[C@@H](CC(C)C)C(=O)O)cn(-c3ccnc4ccccc34)c12`, the EC50 was > 33 µM (inactive). For the compound `COc1ccc2c(c1)c1nnc(-c3ccc(F)cc3)c-1cn2Cc1ccccc1`, the EC50 was > 33 µM (inactive).

Consider `CN(C)S(=O)(=O)c1ccc(-c2csc(N/N=C/c3cccs3)n2)cc1`, for which the EC50 is > 33 µM (inactive).

With `COc1cc2c3nnc(-c4ccc(F)cc4)c-3cn(Cc3ccccc3N(C)C)c2cc1OC`, the EC50 was > 33 µM (inactive). Take `COc1ccc2c(c1)c(=O)c(C(=O)c1ccc(F)cc1)cn2Cc1ccc(F)cc1`: the EC50 is > 33 µM (inactive). For `COc1ccc(C(=O)c2cn(Cc3ccc(C)cc3)c3ccccc3c2=O)cc1` the value was > 33 µM (inactive). Turning to `COc1cccc(OC)c1-c1nc(C(=O)N[C@@H](CC(C)C)C(=O)O)cn1-c1ccc(C)cc1`, the EC50 was > 33 µM (inactive). The result for `COc1ccc2c3nnc(-c4ccc(C)cc4)c-3cn(Cc3ccc(F)cc3)c2c1` reads > 33 µM (inactive). Take `Clc1ccccc1-n1ncc2c(N3CCN(c4ccccc4)CC3)ncnc21`: the EC50 is > 33 µM (inactive). Take `CC(C)C[C@H](NC(=O)c1cn(-c2ccnc3cc(Cl)ccc23)c(-c2c(Cl)cccc2Cl)n1)C(=O)O`: the EC50 was > 33 µM (inactive). `Fc1ccc(-n2ncc3c(N4CCN(c5ccccc5)CC4)ncnc32)cc1`: the EC50 is > 33 µM (inactive). The result for `COc1cc2c3nnc(-c4ccc(F)cc4)c-3cn(Cc3ccc(N(C)C)cc3)c2cc1OC` reads > 33 µM (inactive); that for `CCc1ccc(-c2nnc3c4cc(OC)c(OC)cc4n(Cc4ccccc4)cc2-3)cc1`, > 33 µM (inactive). Take `COc1ccc2c3nnc(-c4ccc(C)cc4)c-3cn(Cc3ccc(C)cc3)c2c1`: the EC50 was > 33 µM (inactive).

Regarding `c1ccc(N2CCN(c3ncnc4c3cnn4-c3ccccc3)CC2)cc1`, the EC50 is > 33 µM (inactive). As to `COc1cc2nc(C3CC3)nc(N3CCN(c4ccccc4OC)CC3)c2cc1OC`, the concentration giving a half-maximal response (EC50) was 3.8 µM. Turning to `COc1ccc(C(=O)c2cn(Cc3ccc(Cl)cc3)c3ccccc3c2=O)cc1`, the EC50 is > 33 µM (inactive).

In the case of `Cc1ccc(Cn2cc3c(-c4ccc(C)c(C)c4)nnc-3c3cc4c(cc32)OCO4)cc1`, the EC50 is > 33 µM (inactive). As to `COc1ccc(Cn2cc(C(=O)c3ccc(F)cc3)c(=O)c3cc(OC)c(OC)cc32)cc1`, the EC50 is > 33 µM (inactive). As for `CCOc1cc2nc(-c3ccc(OC)c(OC)c3)nc(N3CCN(c4ccccc4F)CC3)c2cc1OC`, the EC50 is > 33 µM (inactive). With `CCc1ccc(-c2nnc3c4cc(OC)c(OC)cc4n(Cc4ccc(F)cc4)cc2-3)cc1`, the EC50 was > 33 µM (inactive). For `COc1cc2c3nnc(-c4ccccc4)c-3cn(Cc3ccc(F)cc3)c2cc1OC` the value was > 33 µM (inactive); for `CN(C)S(=O)(=O)c1ccc(-c2csc(N/N=C/c3cccc(Cl)c3)n2)cc1`, > 33 µM (inactive). Turning to `COc1ccc(Cn2c(SCc3cccc(C(F)(F)F)c3)nc3cc(OC)c(OC)cc3c2=N)cc1Cl`, the EC50 is > 33 µM (inactive). Take `Cc1ccc(Cn2cc3c(-c4ccc(C)cc4)nnc-3c3cc4c(cc32)OCO4)cc1`: the EC50 was > 33 µM (inactive). For the compound `CCN(CC)c1ccc(/C=N/Nc2nc(-c3ccc(S(=O)(=O)N(C)C)cc3)cs2)cc1`, the EC50 is > 33 µM (inactive). For the compound `CCOc1ccc(-c2nnc3c4cc(OC)c(OC)cc4n(Cc4ccc(C)cc4)cc2-3)cc1`, the EC50 is > 33 µM (inactive). Consider `COc1cccc2c(C(=O)N[C@@H](CC(C)C)C(=O)O)cn(-c3ccnc4cc(Cl)ccc34)c12`, for which the EC50 was > 33 µM (inactive).

For `COc1cccc(OC)c1-c1cc(C(=O)N[C@@H](CC(C)C)C(=O)O)nn1-c1ccnc2cc(Cl)ccc12`, the EC50 was > 33 µM (inactive).
